Laboratory results published in US9012403B2, “Peptides as active agents to stabilize biological barriers” (XiberScience GmbH, priority 2010, dated 2015).
Marks after values point to notes of the source that are not given here.

Legend:
GEF [1] = assay: GEF-activity in membrane fractions of ECV304 cells (RhoGEF Exchange Assay); type: cell-based
Experimental: (§1) To measure the GEF-inhibitory effect, the following cell lines were used: Caco-2 (epithelial cells from adeno-carcinoma), ECV304 (epithelial cells from bladder carcinoma) and HpMec (endothelial cells, immortalized pulmonary micro-vascular cells). All cells were grown at standard conditions (37° C., 5% CO2 and 95% relative humidity (rH)). Culture Medium used for Caco-2: DMEM+1 mM sodium pyruvate+20% FCS+1% Penicillin Streptomycin; for ECV 304: RPMI 1640+10% FCS+1% Penicillin Streptomycin; and for HpMec: IMDM+25 mM Hepes+10% Human Serum+1% Penicillin Streptomycin+1% L-Glutamine+ECGS/Heparin 2 ml. 4 h before the experiment, cells were starved by serum withdrawal. To induce GEF-activity, cells were stimulated with thrombin, lipopolysaccharide (LPS) or PMA for the indicated time in presence or absence of 50 μg/ml XIB1-a or XIB1-b. After stimulation, membrane fractions were prepared by using the commercial available “Compartemental Protein Extraction Kit” from Biochain institutes. Membrane fractions were prepared according to the manufacturer instructions. GEF-activity in membrane lysates was determined by using “RhoGEF Exchange Assay Biochem Kit” from Cytoskeleton Inc. according to manufacturer instructions. GEF-activity was measured as fluorescence at using the Fluoroskan Ascent FL 2.6 from Thermo Electron Corporation. The excitation Filter wavelength was set at 355 nm and the emission filter wavelength at 460 nm.

GEF [2] = assay: GEF-activity in membrane fractions of Caco-2 cells (RhoGEF Exchange Assay); type: cell-based
Experimental: as §1

GEF [3] = assay: GEF-activity in membrane fractions of HpMec cells (RhoGEF Exchange Assay); type: cell-based; details: HpMec
Experimental: as §1

[4] = test system: Phosphorylated Myosin Light Chain (MLC) and actin stress fibers; assay: MLC phosphorylation and actin stress fiber formation in ECV304 cells (microscopy score); type: cell-based
Experimental: (§2) To measure MLC phosphorylation and actin stress fiber formation, the following cell lines were used: Caco-2, ECV304 and HpMec. All cells were grown at standard conditions (37° C., 5% CO2 and 95% rH). Culture Medium used: for Caco-2: DMEM+1 mM sodium pyruvate+20% FCS+1% Penicillin Streptomycin; for ECV 304: RPMI 1640+10% FCS+1% Penicillin Streptomycin; and for HpMec: IMDM+25 mM Hepes+10% Human Serum+1% Penicillin Streptomycin+1% L-Glutamine+ECGS/Heparin 2 ml. 4 h before the experiment, cells were starved by serum withdrawal. To induce GEF-activity, cells were stimulated with thrombin, LPS or PMA for the indicated time in presence or absence of 50 μg/ml XIB1-a or XIB1-b. After stimulation, cells were fixed using 4% PFA. Phospho MLC was detected by using the “rabbit anti phosphor-myosin light chain antibody” from Chemicon in a concentration of 3 μl/ml in PBS (Gibco) supplemented with 0.1% Triton X-100. As detection antibody, the Alexa 448 tagged “anti Rabbit IgG Antibody” from Invitrogen was used in a concentration of 0.5 μl/ml in PBS (Gibco) supplemented with 0.1% Triton X-100. Aktin was detected using TRITC-labeled Phalloidin in a concentration of 0.5 μl/ml in PBS (Gibco) supplemented with 0.1% Triton. Stained cells were analyzed by using a Zeiss Laser Scan microscope. Evaluation of the cyto-skeletal activation was performed by 2 independent observers that were blinded to the conditions. Evaluation criteria were set as follows:
(§3) Actin: parallel actin bundles absent=0; distinct bundle formation=1; prominent parallel bundles=2; Phospho-MLC: present at cell poles=0; slight co-localization with actin bundles=1; prominent co-localization with actin bundles=2

[5] = test system: Phosphorylated Myosin Light Chain (MLC) and actin stress fibers; assay: MLC phosphorylation and actin stress fiber formation in HpMec cells (microscopy score); type: cell-based
Experimental: as §2, §3

LPS induced lung injury = assay: LPS induced lung injury, bronchoalveolar lavage; type: in vivo; details: mice; for effect on barrier function in the LPS-inhalation model (neutrophils and albumin in BALF): equal in groups treated intraperitoneally and intratracheally; for counts of neutrophils in the BALF (mean +/ SD) / albumine content of BALFs (mean +/ SD): n = 20
Experimental: Male C57Bl/6 Mice (Charles River, Germany) were kept at the animal facility of the Medical University of Vienna, feed with standard diet and water was provided ad libitum. All interventions were performed according to the guide lines of AAALAC (Association for Assessment and Accreditation of Laboratory Animal Care). All experiment were approved by the Ethic committee of the Medical University of Vienna. Mice were anesthetized with isoflouran and treated with 100 ng of LPS (E. coli O55:B5, Sigma Aldrich) intranasally. XIB1-a or XIB1-b was applied either intra-peritoneally (2×2 mg/kg) or via inhalation (2×4 mg/kg), first application was performed concomitantly with LPS administration, the second application was performed 1 h after the LPS inhalation.
The trachea was exposed through a midline incision and canulated with a sterile 20-gauge catheter (BD Venflon™, Becton Dickinson Infusion Therapy, Helsingborg, Sweden). Bilateral broncho-alveolar lavage fluid (BALF) was gained by instilling two 0.5 ml aliquots of sterile saline. Approximately 0.9-1 ml BALF was retrieved per mouse. Total cell numbers were counted from each sample using a hemo-cytometer (Türck chamber), BALF differential cell counts were done on cytospin preparations stained with Giemsa. For protein measurements, BALF was diluted 1:2 in buffer containing 300 mM NaCl, 30 mM Tris, 2 mM MgCl2, 2 mM CaCl2, and Pepstatin A, Leupeptin and Aprotinin (all 20 ng/ml; pH 7.4). Protein levels in BALF were measured using the BCA protein kit according to the manufacturer's instructions (Pierce, Rockford, Ill.).
In addition, the same set-up as described above was used for comparing the impact of XIB1-b compared to Bβ15-42 (PLoS ONE (2009), 4(4): e5391), a peptide derived from fibrin having the sequence […] (SEQ ID NO: 41). Bβ15-42 was added in the same manner as XIB1-b. Again, protein content and cell count of BALF was measured.

[6] = ECV 304, LPS 100 μg/ml, 1 min, with or without peptide 50 μg/ml
[7] = ECV 304, LPS 100 μg/ml, 5 min, with or without peptide 50 μg/ml
[8] = ECV 304, Thrombin 1 U/ml, 1 min, with or without peptide 50 μg/ml
[9] = ECV 304, Thrombin 1 U/ml, 5 min, with or without peptide 50 μg/ml
[10] = ECV 304, no stimulus, 1 min, peptide 50 μg/ml
[11] = ECV 304, no stimulus, 5 min, peptide 50 μg/ml
[12] = CaCo-2, PMA 1 μg/ml, 1 min, with or without peptide 50 μg/ml
[13] = CaCo-2, PMA 1 μg/ml, 5 min, with or without peptide 50 μg/ml
[14] = CaCo-2, no stimulus, 1 min, peptide 50 μg/ml
[15] = CaCo-2, no stimulus, 5 min, peptide 50 μg/ml
[16] = Thrombin 1 U/ml, 1 min, with or without peptide 50 μg/ml
[17] = Thrombin 1 U/ml, 5 min, with or without peptide 50 μg/ml
[18] = no stimulus, 1 min, peptide 50 μg/ml
[19] = no stimulus, 5 min, peptide 50 μg/ml
[20] = 6 h after LPS administration, intraperitoneal application (2×2 mg/kg)
[21] = 6 h after LPS administration, intratracheal application

| Sequence | GEF-activity, relative values compared to unstimulated control (Mean) (GEF [1]; [6]) | GEF-activity, relative values compared to unstimulated control (Mean) (GEF [1]; [7]) | GEF-activity, relative values compared to unstimulated control (Mean) (GEF [1]; [8]) | GEF-activity, relative values compared to unstimulated control (Mean) (GEF [1]; [9]) | GEF-activity, relative values compared to unstimulated control (Mean) (GEF [1]; [10]) | GEF-activity, relative values compared to unstimulated control (Mean) (GEF [1]; [11]) | GEF-activity, relative values compared to unstimulated control (Mean) (GEF [2]; [12]) | GEF-activity, relative values compared to unstimulated control (Mean) (GEF [2]; [13]) | GEF-activity, relative values compared to unstimulated control (Mean) (GEF [2]; [14]) | GEF-activity, relative values compared to unstimulated control (Mean) (GEF [2]; [15]) | GEF-activity, relative values compared to unstimulated control (Mean) (GEF [3]; [16]) | GEF-activity, relative values compared to unstimulated control (Mean) (GEF [3]; [17]) | GEF-activity, relative values compared to unstimulated control (Mean) (GEF [3]; [18]) | GEF-activity, relative values compared to unstimulated control (Mean) (GEF [3]; [19]) | MLC phosphorylation and actin stress fiber formation, evaluation score (Mean) [4, 6] | MLC phosphorylation and actin stress fiber formation, evaluation score (Mean) [4, 7] | MLC phosphorylation and actin stress fiber formation, evaluation score (Mean) [4, 8] | MLC phosphorylation and actin stress fiber formation, evaluation score (Mean) [4, 9] | MLC phosphorylation and actin stress fiber formation, evaluation score (Mean) [5, 16] | MLC phosphorylation and actin stress fiber formation, evaluation score (Mean) [5, 17] | further results |
| --- | --- | --- | --- | --- | --- | --- | --- | --- | --- | --- | --- | --- | --- | --- | --- | --- | --- | --- | --- | --- | --- |
| GRRPGGASGG (/note=“Description of artificial sequence cingulin-derived peptide XIB1-a”) | 1.7* | 1.3* | 2.5* | 1.5* | 1 | 1 | 1.4* | 1.5 | 1 | 1 | 1.8* | 2.1* | 1 | 1 | 1* | 1* | 1* | 1* | 1* | 0.3* | MLC phosphorylation and actin stress fiber formation, evaluation score (Mean) [4, 10]: 1; MLC phosphorylation and actin stress fiber formation, evaluation score (Mean) ([4]; ECV 304, no stimulus, 1 min, peptide 50 μg/ml, listed as XIB-a): 0; MLC phosphorylation and actin stress fiber formation, evaluation score (Mean) [5, 18]: 0; MLC phosphorylation and actin stress fiber formation, evaluation score (Mean) [5, 19]: 0; effect on barrier function in the LPS-inhalation model (neutrophils and albumin in BALF) (LPS induced lung injury): beneficial effect |
| GRRPLGGISGG (/note=“Description of artificial sequence cingulin-derived peptide XIB1-b”) | 1.7* | 1.3* | 2.5* | 1.5* | 1 | 1 | 1.4* | 1.5 | 1 | 1 | 1.8* | 2.1* | 1 | 1 | 1* | 1* | 1* | 1* | 1* | 0.3* | MLC phosphorylation and actin stress fiber formation, evaluation score (Mean) [5, 18]: 0; MLC phosphorylation and actin stress fiber formation, evaluation score (Mean) [5, 19]: 0; counts of neutrophils in the BALF (mean +/ SD) (LPS induced lung injury; comparison with Bβ15-42 (Table 6), 6 h after LPS, intratracheal plus intraperitoneal application): 15 +/− 15 neutrophils/ml (× 10^3); albumine content of BALFs (mean +/ SD) (LPS induced lung injury; [20]): 120 ± 12 µg/mL; counts of neutrophils in the BALF (mean +/ SD) (LPS induced lung injury; [20]): 25 +/− 22 neutrophils/ml (× 10^3); albumine content of BALFs (mean +/ SD) (LPS induced lung injury; [21]): 98 ± 20 µg/mL; counts of neutrophils in the BALF (mean +/ SD) (LPS induced lung injury; [21]): 28 +/− 23 neutrophils/ml (× 10^3); effect on barrier function in the LPS-inhalation model (neutrophils and albumin in BALF) (LPS induced lung injury): beneficial effect |
